Experimental data published in patent publication US8203011B2, “3′,4′,5-trimethoxy flavone derivatives as stimulant of mucus secretion, method for the same, and pharmaceutical composition comprising the same” (Dong-A Pharm. Co., Ltd., priority 2007, dated 2012).

How the values were obtained:
[1] = system: human mucoepidermoid pulmonary carcinoma cell line NCI-H292; test: Mucin secretion (MUC4, MUC5AC) by ELISA in NCI-H292 cells; assay type: cell-based; conditions: 24 hours, read-out: % increase in mucin secretion vs. non-treated control group; for activation at 20 µg/mL: 20 μg/mL; for activation at 100 µg/mL: 100 μg/mL; for activation at 0.8 µg/mL: 0.8 μg/mL; for activation at 4 µg/mL: 4 μg/mL
Description: 2×10^5 cells/well of the human mucoepidermoid pulmonary carcinoma cell line NCI-H292 (ATCC, #CRL-1848) were seeded on a 96-well plate, and treated with 3′,4′,5-trimethoxy flavone derivatives at various concentrations of 0.16 to 100 μg/mL for 24 hours. Thereafter, secretion levels of representative transmembrane mucin MUC4 and secretory mucin MUC5AC were measured by enzyme-linked immunosorbent assay (ELISA).

[2] = system: rabbit model of dry eye syndrome; test: Rose Bengal assay of ocular surface damage in N-acetylcysteine-induced rabbit dry eye syndrome model; assay type: in vivo, New Zealand White (NZW) rabbits; conditions: 0.5% solution instilled into conjunctival sac 4 times/day (0.1 mL) for seven days; Mean ± S.D.
Description: (§1) Male New Zealand White (NZW) rabbits were randomly assigned into two groups, each consisting of 5 animals. In order to induce dry eye syndrome, N-acetylcysteine was first dissolved at a concentration of 20% in physiological saline. Then, the rabbit's lower eyelid was pulled slightly away from the globe to form a cup shape and the above-prepared N-acetylcysteine solution was instilled into the conjunctival sac six times every 2 hours, resulting in establishment of an animal model of dry eye syndrome. 3′,4′,5-trimethoxy flavone derivatives were dissolved at a concentration of 0.5% in a 0.1N sodium hydroxide solution which was then titrated to pH 7.0 to 8.0 with 10% acetic acid. From the following day after induction of dry eye syndrome, the titrated 3′,4′,5-trimethoxy flavone derivatives were repeatedly instilled into conjunctival sacs of animals at a dose frequency of 4 times/day (0.1 mL/each time) for seven consecutive days. On the next day following the induction of dry eye syndrome and upon completion of the experiment, the degree of ocular surface damage was evaluated to calculate a damage decrease rate (%) using Rose Bengal assay, and mucus secretion in the conjunctiva was quantitatively analyzed using Alcian blue assay. More specifically referring to Rose Bengal assay, 10 μl of a 1% Rose Bengal solution was dropped into the eyes of animals, and distribution and intensity of Rose Bengal staining were scored according to the method disclosed in Urashima et al., Cornea, 23:613-9, 2004. For Alcian blue assay, the rabbit's conjunctivae were excised, weighed, stained with a 0.1% Alcian blue solution for 2 hours and then washed with a 0.25 M sucrose solution. Following extraction with a 0.5 M magnesium chloride solution, the absorbance was measured at 605 nm.

[3] = system: rabbit model of dry eye syndrome; test: Alcian blue assay of conjunctival mucus secretion in N-acetylcysteine-induced rabbit dry eye syndrome model; assay type: in vivo, New Zealand White (NZW) rabbits; conditions: 0.5% solution instilled 4 times/day (0.1 mL) for seven days; conjunctiva, absorbance at 605 nm; Mean ± S.D.
Description: as §1

Compound | activation at 20 µg/mL [1] [%] | activation at 100 µg/mL [1] [%] | Rose Bengal Assay Damage decrease rate (%) [2] [%] | Alcian Blue Assay Absorbance/g tissue [3] [Absorbance/g tissue] | activation at 0.8 µg/mL [1] [%] | activation at 4 µg/mL [1] [%]
COc1ccc(-c2cc(=O)c3c(OC)cc(OCC(=O)NC#N)cc3o2)cc1OC [Example 4, 7-{(N-cyanocarbamoyl)-methyloxy}-3′,4′,5-trimethoxy flavone] | 4.3 | 25.2 | 83.8 ± 4.6 | 0.24 ± 0.19 |  | 
COc1ccc(-c2cc(=O)c3c(OC)cc(OCC(=O)NS(N)(=O)=O)cc3o2)cc1OC [Example 8, 7-{(aminosulfonylcarbamoyl)methyloxy}-3′,4′,5-trimethoxy flavone] | 15.4 | 21.4 |  |  | 4.4 | 10.2
COc1ccc(-c2cc(=O)c3c(OC)cc(OCC(=O)O)cc3o2)cc1OC.O [7-carboxymethyloxy-3′,4′,5-trimethoxy flavone monohydrate] | 52.5 | 75.9 | 88.5 ± 4.7 | 0.38 ± 0.08 | 24.8 | 39.1
COc1ccc(-c2cc(=O)c3c(OC)cc(OCC(=O)NS(C)(=O)=O)cc3o2)cc1OC [Example 9, 7-{(methylsulfonylcarbamoyl)methyloxy}-3′,4′,5-trimethoxy flavone] | 37.4 | 43.3 | 76.8 ± 8.4 | 0.35 ± 0.13 | 9.7 | 15.9
COc1ccc(-c2cc(=O)c3c(OC)cc(OCc4nnn[nH]4)cc3o2)cc1OC [Example 1, 7-(tetrazol-5-ylmethyloxy)-3′,4′,5-trimethoxy flavone] | 57.8 | 52 |  |  | 18.7 | 28.1
COc1ccc(-c2cc(=O)c3c(OC)cc(OCC(N)=O)cc3o2)cc1OC [Example 3, 7-{(carbamoyl)methyloxy}-3′,4′,5-trimethoxy flavone] | 10.4 | 15.8 |  |  | 2.2 | 6.6
COc1ccc(-c2cc(=O)c3c(OC)cc(OCC(=O)NS(=O)(=O)c4ccccc4)cc3o2)cc1OC [Example 5, 7-{(N-benzenesulfonylcarbamoyl)methyloxy}-3′,4′,5-trimethoxy flavone] | 35.4 | 70.9 | 70.1 ± 5.2 | 0.32 ± 0.09 | 43.9 | 45.4
COc1ccc(-c2cc(=O)c3c(OC)cc(OCC(=O)NC(N)=O)cc3o2)cc1OC [Example 10, 7-{(carbamylcarbamoyl)methyloxy}-3′,4′,5-trimethoxy flavone] | 15.4 | 25.9 |  |  |  | 6.7
COc1ccc(-c2cc(=O)c3c(OC)cc(OCC(=O)NC(C)=O)cc3o2)cc1OC [Example 12, 7-{(acetylcarbamoyl)methyloxy}-3′,4′,5-trimethoxy flavone] | 20.5 | 30.2 |  |  | 15.2 | 13.6
